Test results published in patent US20090326259A1, “NF-Kappabeta Activation Inhibitor” (Tokyo University of Marine Science and Technology, priority 2006, published 2009).

Test system: NF-κB
Assay: LPS-stimulated NF-κB activation in RAW264.7 murine macrophage (gel shift with biotin-labelled NF-κB consensus sequence)
Format: cell-based
Conditions: RAW264.7, 1 μM compound 22 h, then 1 μg/ml LPS 2 h; FIG. 2
Description: [Measurement of LPS-stimulated NF-κB activation in RAW264.7 murine macrophage strain] The murine macrophage RAW264.7 is preserved in DMEM containing 10% fetal bovine serum. After treatment in DMEM with 1 μM cycloartenyl ferulate (CAF) for 22 h, it is further stimulated for 2 h in 1 μg/ml lipopolysaccharide (LPS).
The nucleoprotein of RAW264.7 cell is extracted with Transfactor Extraction kit (BD Biosciences, USA), and then is bound with the following NF-κB consensus sequence of biotin-labeling reaction for 60 min in reaction solution consisting 100 mM HEPES (pH 7.6), 5 mM EDTA, 50 mM ammonium sulfate, 5 mM DTT, 150 mM KCl, 1% (v/v) Tween20 and 0.0001% poly (dI-dC) (Amersham Biosciences, USA).
Except these experimental groups, control group reacting with 90-fold unlabeled consensus sequence, along with supershift group using anti-p50 polyclonal antibody (Abcam, USA) and anti-p65 polyclonal antibody (Santa Cruz Biotechnology, INC., USA) are established to make comparison. […]
The peroxidase activity is detected with Immobilon Western Chemiluminescent HRP substrate (Millipore, USA) and the luminous intensity is quantified by Image J (National Institutes of Health, USA) as shown in FIG. 2. […]

With `COc1cc(/C=C/C(=O)O)ccc1O` [ferulic acid] the NF-κB activation was “barely inhibits”.
